Laboratory results taken from patent US20240237690A1, “Licorice Compounds and Their Use as Flavor Modifiers” (Firmenich SA, priority 2021, published 2024).

Legend:
Type in all cases: in vivo, human
[1] = tested on: sweet taste of water solution containing 4% sucrose; test: Sensory testing by trained taste panel: sweet taste, sucrose reference; conditions: mean of 20 trained panelists, scale −5 to 5; compound at 10 or 40 ppm; 0 = reference water solution containing 4% sucrose
Text: (§1) A panel consisted in 20 trained taste panelists evaluated samples of each of Compounds 101-106 at 10 or 40 ppm for taste properties (sweet, licorice, lingering, bitter or astringent) on a scale of −5 to 5 (−5 to −4 denoted strong masking effect, −4 to −3 denoted moderate masking effect, −3 to −2 denoted masking effect, −2 to 0 denoted weak masking effect, while 5 to 4 denoted strong enhancing effect, 4 to 3 denoted moderate enhancing effect, 3 to 2 denoted enhancing effect, 2 to 0 denoted weak enhancing effect, 0 being equal to the intensity of a reference water solution containing 4% sucrose or 0.02% SG95 (>95% steviol glycosides) or 10 ppm mixture of Limonin, Naringin, and Normilin (for bitter and astringent). Note that ED and HED refers to eriodictyol or homoeriodictyol, respectively, at a concentration of 40 ppm.

[2] = tested on: lingering taste of 0.02% SG95 (>95% steviol glycosides); test: Sensory testing by trained taste panel: lingering, SG95 reference; conditions: mean of 20 trained panelists, scale −5 to 5; compound at 10 or 40 ppm; 0 = reference 0.02% SG95
Text: as §1

[3] = tested on: bitter taste of 10 ppm mixture of Limonin, Naringin, and Normilin; test: Sensory testing by trained taste panel: bitter taste, citrus bitter mixture; conditions: mean of 20 trained panelists, scale −5 to 5, compound at 10 or 40 ppm, ED at 40 ppm, 0 = reference 10 ppm mixture of Limonin
Text: as §1

[4] = tested on: astringent taste of 10 ppm mixture of Limonin, Naringin, and Normilin; test: Sensory testing by trained taste panel: astringent taste, citrus bitter mixture; conditions: mean of 20 trained panelists, scale −5 to 5, compound at 10 or 40 ppm, ED at 40 ppm, 0 = reference 10 ppm mixture of Limonin
Text: as §1

Row | Compound | Sweet (sucrose) [1] | Lingering (SG95) [2] | Bitter (Limonin, Naringin, and Normilin) [3] | Astringent (Limonin, Naringin, and Normilin) [4]
1 | O=C(/C=C/c1ccc(O)cc1)c1ccc(O)cc1O [Compound 104, isoliquiritigenin] | Enhance (3 to 2 denoted enhancing effect) | – | – | –
2 | O=C1C[C@@H](c2ccc(O)cc2)Oc2cc(O)ccc21 [Compound 102, liquiritigenin] | – | Mask (−3 to −2 denoted masking effect) | Mask (−3 to −2 denoted masking effect) | Mask (−3 to −2 denoted masking effect)
3 | O=C1C[C@@H](c2ccc(O[C@@H]3O[C@H](CO)[C@@H](O)[C@H](O)[C@H]3O)cc2)Oc2cc(O)ccc21 [Compound 101, liquiritin] | Enhance (3 to 2 denoted enhancing effect) | – | Mask (−3 to −2 denoted masking effect) | –
4 | O=C1C[C@@H](c2ccc(O)c(O)c2)Oc2cc(O)cc(O)c21 [ED, eriodictyol, reference compound] | – | – | Mask (−3 to −2 denoted masking effect) | –
